The target in one test is T1, rat EP1 receptor (Rattus norvegicus, UniProt P70597).
T1 construct: expressed in transfected cells
T1 sequence (P70597 1-405): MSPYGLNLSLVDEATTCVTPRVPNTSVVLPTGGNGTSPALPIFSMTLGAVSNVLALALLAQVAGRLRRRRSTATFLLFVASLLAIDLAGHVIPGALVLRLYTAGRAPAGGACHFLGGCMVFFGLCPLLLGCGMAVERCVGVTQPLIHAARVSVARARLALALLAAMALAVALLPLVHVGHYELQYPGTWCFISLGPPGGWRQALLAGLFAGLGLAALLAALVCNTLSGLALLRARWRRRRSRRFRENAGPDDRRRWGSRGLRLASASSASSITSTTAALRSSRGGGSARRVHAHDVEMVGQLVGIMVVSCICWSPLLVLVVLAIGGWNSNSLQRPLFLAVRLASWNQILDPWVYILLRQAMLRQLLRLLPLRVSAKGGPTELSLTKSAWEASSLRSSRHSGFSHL
The test can be described thus: Rat EP1 receptor agonistic/antagonistic action (intracellular Ca2+, FLIPR, HEK293 stable expression cells). The format is cell-based. Particulars: inhibition of intracellular Ca2+ increasing action by PGE2. The protocol: (§1) Using rat EP1 or rat EP3β receptor stable expression cells, the intracellular Ca^2+ concentration was measured using a fluorescent imaging plate reader (FLIPR manufactured by Molecular Devices Corporation). The agonistic activity was evaluated by the intracellular Ca^2+ increasing action of the test compound, and the antagonistic activity was evaluated by the inhibiting action of the test compound on the intracellular Ca^2+ increasing action by PGE2.
(§2) The cDNA of the rat EP 1 or EP3β receptor was subcloned into an expression vector (pcDNA3.1-V5-His-topo, manufactured by Invitrogen Corporation). This expression vector was introduced into HEK293 cells (American Type Culture Collection) to prepare a rat EP1 or EP3β receptor stable expression cell line. These cells were seeded onto a 96-well poly-D-lysin treated black wall clear bottom plate (manufactured by Becton, Dickinson and Company) at 2 to 3×10^4 cell/well, and used for the experiment the next day. The measurement of the intracellular Ca^2+ concentration was carried out by an FLIPR calcium 3 assay kit (manufactured by Molecular Devices Corporation). The culture medium of each well was removed by suction and replaced with a loading buffer (Hank's balanced salt solution containing 20 mM HEPES-NaOH (pH 7.4), 2.5 mM Probenecid, 0.1% bovine serum albumin, and a color), followed by incubating at room temperature for 3 hours and loading a color. For the evaluation of the agonistic action, the change in the intracellular Ca^2+ concentration was determined from the difference in the maximum value of the intracellular Ca^2+ concentration after the addition of the test compound and the value before the addition of the test compound. For the evaluation of the antagonistic action, after incubating the test compound for 5 minutes, PGE2 was added thereto to determine the change in the intracellular Ca^2+ concentration by PGE2.
(§3) Further, NE means that the action has no significance.

Another test deals with T2, rat EP3β receptor (Rattus norvegicus, UniProt P34980).
T2 construct: expressed in transfected cells
T2 sequence (P34980 1-361 isoform P34980-2): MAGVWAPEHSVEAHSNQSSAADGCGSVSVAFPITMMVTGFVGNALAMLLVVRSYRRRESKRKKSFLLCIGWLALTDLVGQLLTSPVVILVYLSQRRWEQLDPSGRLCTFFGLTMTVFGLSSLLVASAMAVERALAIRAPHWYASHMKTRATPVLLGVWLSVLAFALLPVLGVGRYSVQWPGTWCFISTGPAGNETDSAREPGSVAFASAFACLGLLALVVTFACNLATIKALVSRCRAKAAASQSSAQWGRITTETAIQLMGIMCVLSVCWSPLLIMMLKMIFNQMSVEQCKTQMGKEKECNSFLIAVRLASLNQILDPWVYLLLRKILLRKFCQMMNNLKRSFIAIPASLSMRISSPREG
The test is described as follows: Rat EP3 receptor agonistic/antagonistic action (intracellular Ca2+, FLIPR, HEK293 stable expression cells). The format is cell-based. Particulars: inhibition of intracellular Ca2+ increasing action by PGE2; read-out: RatEP3 Antagonistic Action IC50. On the procedure: as §1, §2, §3

Test [1] deals with LPS-induced TNF-α production in THP-1 cells. The test is described as follows: Inhibitory action on LPS-induced TNF-α production in THP-1 cells. The format is cell-based. The following applies: Homo sapiens, 3 hours after LPS, ELISA. The protocol: Human monocytic cell line THP-1 cells were suspended in an assay medium (PRMI-1640 containing 10% fetal bovine serum, 100 unit/mL penicillin G sodium, and 100 μg/mL streptomycin sulfate), and seeded onto a 96-well plate at 1×10^5 cells/well. 50 μL/well of an assay medium containing a test compound was added thereto, followed by incubation at 37° C. for 30 minutes. Further, 50 μL/well of an assay medium containing 1 to 5 μg/mL of LPS was added thereto, and the TNF-α concentration in the assay medium of each well after 3 hours was measured. The measurement was carried out by means of a standard ELISA method. A 96-well plate which had been coated overnight with an anti-human TNF monoclonal antibody (clone: MAb1) (manufactured by Becton, Dickinson and Company) as a capture antibody was washed with a wash buffer (PBS containing 0.05% Tween-20), and PBS containing 10% fetal bovine serum was incubated at room temperature for 1 hour to perform blocking. After washing with a wash buffer, 100 μL/well of the assay medium to be measured was incubated at 4° C. overnight. As the standard material to be measured, a recombinant human TNF (manufactured by Becton, Dickinson and Company) was used. After washing with a wash buffer, 100 μL of a biotinylated anti-human TNF monoclonal antibody (clone: MAb11) as a detection antibody was treated at room temperature for 1 hour. After washing with a wash buffer, it was treated with 100 μL/well of an HRP-labeled Streptavidin (manufactured by Zymed Laboratories, Inc.) at room temperature for 30 minutes, and washed again. Treatment was conducted using 100 μL/well of a TMB (3,3′,5,5′-tetramethylbenzidine) substrate liquid at room temperature for 20 minutes in a dark room. A 2 M sulfuric acid was added thereto at 50 μL/well to stop the reaction, and an absorbance at 450 nm/570 nm was measured by means of a plate reader SPECRA max (manufactured by Molecular Devices Inc.).

For another test, the system named is TNF-α production. The test is described as follows: In vivo TNF-α production inhibiting action in rat (LPS-induced plasma TNF-α). More on the design: species or system SD male rats. Particulars: oral administration 1 hour before LPS (10 μg/kg i.v.), plasma TNF-α 90 minutes after LPS. On the procedure: LPS (10 μg/kg) was administered to caudal veins of SD male rats, and after 90 minutes from the administration, the heparin blood was collected from the abdominal vena cava to prepare a plasma. The test compound was orally administered 1 hour before the administration of LPS. The amount of TNF-α in the plasma was measured using a BD OptEIA rat TNF ELISA set (manufactured by Becton, Dickinson and Company) according to the attached method. The inhibitory rate by the test compound was determined from the amount of TNF-α in plasma in a control group (administered with a solvent).

Our source for the IC50 and ED50 values is patent US20110082133A1, “PYRIDONE COMPOUNDS” (priority 2008, published 2011).

Each structure is given as a SMILES string. Where a name gives a salt, the structure may show the parent alone.

Consider `CCC[C@H]1CCCN1Cc1c(Cl)cc(Cl)c(=O)n1CCc1ccc(C(=O)O)cc1` [Example 17, 4-{2-[3,5-dichloro-2-oxo-6-{[(2S)-2-propylpyrrolidin-1-yl]methyl}pyridin-1(2H)-yl]ethyl}benzoic acid trifluoroacetate], for which the half-maximal inhibitory concentration (IC50) is 2100 nM at rat EP1 receptor, greater than 10 µM on rat EP3β receptor and 9.4 nM in test [1]. Further, the ED50 with TNF-α production turned out to be 0.15 mg/kg.

As for `O=C(O)c1ccc(CCn2c(CNc3cccc(OC(F)(F)F)c3)c(Cl)cc(Cl)c2=O)cc1` [Example 107], the 50% inhibitory concentration (IC50) at rat EP1 receptor is greater than 10000 nM; on rat EP3β receptor it was greater than 10 µM; in test [1], 40 nM. This compound also returned an ED50 in the test with TNF-α production of 1 mg/kg.

For `O=C(O)c1ccc(CCn2c(CN3CCc4ccc(F)cc43)c(Cl)cc(Cl)c2=O)cc1` [Example 9, 4-(2-{3,5-dichloro-6-[(6-fluoro-2,3-dihydro-1H-indol-1-yl)methyl]-2-oxopyridin-1(21-1)-yl}ethyl)benzoic acid], the half-maximal inhibitory concentration (IC50) is 1000 nM on rat EP1 receptor, greater than 10 µM on rat EP3β receptor and 11 nM in test [1]. Besides, the ED50 with TNF-α production was 4.3 mg/kg.

With `CN(Cc1c(Cl)cc(Cl)c(=O)n1CCc1ccc(C(=O)O)cc1)c1cccc(Cl)c1` [Example 160], the IC50 on rat EP1 receptor was 2700 nM; on rat EP3β receptor it was no less than 10 µM; in test [1] it was 29 nM. Moreover, it took a dose of 2.3 mg/kg to reach the 50% effect level in the test with TNF-α production (ED50).
